Measurements from patent US6426105B1, “Use of lysophosphatidylethanolamine (18.1) and lysophosphatidylinositol to retard senescence and to enhance fruit ripening” (Wisconsin Alumni Research Foundation, priority 1997, dated 2002).

Columns and labels:
[1] = tested on: partially purified cabbage PLD; assay: Partially purified cabbage PLD activity assay (PEOH release from PC); conditions: for Effect of different lysophospholipids on PLD activity: FIG. 5; for Effect of components of the LPE molecule on PLD activity: FIG. 2
[2] = tested on: cranberry fruits; assay: Ethylene production of postharvest cranberry fruits after LPE dip; assay type: in vivo, Vaccinium macrocarpon Ait. 'Stevens'; conditions: for Ethylene production, Relative %: 100 μM, control = 100
Description: However, the impact of different acyl chains of LPE on fruit senescence has not been investigated. In the present study, complementary to the effect of different acyl chains of LPE on PLD activity, the inventors investigated the effect of different acyl chains of LPE on ethylene production of cranberry fruits. Fully ripened cranberry fruits (Vaccinium macrocarpon Ait. 'Stevens') were harvested during the fall season and kept in a cold room. […] After two days, berries were incubated in a sealed glass jar for 24 hours in order to measure ethylene production. Ethylene was quantified with a gas chromatograph equipped with a flame ionization detector (Shinadzu 9AM, Shimadzu Corporation, Kyoto, Japan) (3).

[3] = tested on: carnation flowering spikes; assay: Vase life of cut carnation flowers; conditions: 25 mg/L; control 27.5 ± 3.3; Mean ± SE
[4] = tested on: snapdragon flowering spikes; assay: Vase life and senescence of cut snapdragon spikes; conditions: for Spikes with Wilted Flower Florets after 7 days (% of total): 24 hr; for Spikes with Wilted Flower Florets after 7 days (% of total) / Water Content of Leaf after 18 days (Fresh wt/Dry wt): Mean ± SE; for Water Content of Leaf after 18 days (Fresh wt/Dry wt): control 5.79 ± 0.18; for Vase Life of Spikes (Days when > 50% of spikes remained marketable): control 4; for Leaf water content of spikes: 18 days after treatment; for spikes wilted after 7 days of treatment: range over tested concentrations, control 76%
[5] = tested on: tomato plants/fruits; assay: Enhancement of tomato fruit ripening and stability by preharvest spray; assay type: in vivo, Tomato plants cv. H9478; conditions: 100 mg/L spray 10 days before harvest; for At Harvest, Partial Red fruits (weight % of total): control 13.2; for At Harvest, Green fruits (weight % of total): control 33.2; for 3 Weeks After Harvest, Soft Fruits (non marketable) (weight % of total): control 47.8; for At Harvest, Red fruits (weight % of total): control 53.6
Description: This experiment was conducted to compare the effects of […] (18:1) and LPI on fruit ripening. Tomato plants cv. […] were grown in pots for two and one-half months under fluorescent lights. […] All solutions contained 1% ethol and 0.05% […] 309 (Dow Corning Co., Midland, Mich.) as activating agents. Control plants received distilled water containing 1% ethanol and 0.05% […] 309. Fruits were harvested 10 days after treatment and graded into green, partial red, and red (indicating full ripening). […] (see Table 7).

[6] = tested on: tomato fruits; assay: Retardation of senescence of harvested mature green tomato fruits; assay type: in vivo, Lycopersicon esculentum cv. H9144; conditions: for Ethylene Production after 7 days / Rotten fruits after 3 weeks (% of total): 100 mg/L in 1% ethanol, 20 min dip; for Ethylene Production after 7 days: control 1.26 ± 0.21, Mean ± SE; for Rotten fruits after 3 weeks (% of total): control 37.2; for ethylene production relative to control: 7 days after treatment
Description: Mature green fruits of tomato (Lycopersicon esculentum cv. […]) were harvested from three month old plants. […] The control tomatoes were dipped in distilled water containing 1% ethol. After dipping, the fruits were stored at room temperature for 3 weeks. Production of ethylene gas was measured 7 days after treatment.

[7] = tested on: senescing leaves; assay: Leaf chlorophyll content after eight day senescence; assay type: in vivo; conditions: after eight day senescence (FIG. 6)
Description: To evaluate the relative efficacy of various species of lysophospholipids in delaying senescence in leaves, treatment solutions containing lysophosphatidic acid (LPA), lysophosphatidylcholine (LPC),LPE, LPI, or water were applied to leaves. The chlorophyll content of each sample was measured by standard methods (10) after an eight day senescence. The relative chlorophyll contents were expressed as the percentage of the control.

[8] = tested on: soluble cabbage PLD; assay: Soluble PLD activity, cabbage leaf extract (radio-labeled PC); assay type: biochemical, cabbage (Brassica oleracea L. Blue Vintage)
[9] = tested on: membrane-associated castor bean PLD
[10] = tested on: membrane-associated cabbage PLD; assay: Membrane-associated PLD activity, cabbage leaf extract; assay type: biochemical, cabbage (Brassica oleracea L. Blue Vintage)
[11] = tested on: soluble castor bean PLD
[12] = tested on: tomato leaves; assay: Retardation of ethephon-induced leaf senescence in tomato plants; assay type: in vivo, Tomato plants cv. H9144; conditions: ethephon 1000 mg/L ± lysophospholipid 50 mg/L spray; 10 to 14 days after treatment; Mean ± SE
Description: Ethephon, also known as Ethrel, (Ethrel is a trademark of Rhone-Poulenc Ag. Co. (Research Triangle Park, N.C.)) is an aqueous formulation that decomposes to ethylene and is used widely to maximize the yield of ripe tomato fruits in once-over harvesting operations. […] Tomato plants cv. H9144 were grown in a greenhouse for two and a half months to serve as sources of leaf samples. Plant were sprayed to runoff with ethephon at 1000 mg/L or with ethephon plus lysophospholipid mixtures as shown below in Table 6. Lysophospholipid solutions at 50 mg/L were prepared in 1% (v/v) ethanol and mixed with ethephon (1000 mg/L). Control plans were sprayed with ethephon alone in 1% (v/v) ethanol. Senescence of treated leaves was quantified 10 to 14 days after treatment by measuring chlorophyll and protein content.

[13] = 200 μM, PC substrate (FIG. 1, 2, 5)

CCCCCCCCCCCCCC(=O)OCC(O)COP(=O)(O)OCCN (stereo not shown) [LPE 14:0]
Effect on PLD activity ([1]; 40 and 200 μM, LPE with different acyl chains (FIG. 1)): very little effect
Ethylene production, Relative % [2]: 100.0%

lysophosphatidylglycerol [LPG]
Effect of different lysophospholipids on PLD activity [1]: did not significantly affect

lysophosphatidylserine [LPS]
Effect of different lysophospholipids on PLD activity [1]: did not significantly affect

lysophosphatidic acid [LPA]
PLD activity, % of the control [1, 13]: 169%
Effect of different lysophospholipids on PLD activity [1]: significantly increased PLD activity

lysophosphatidylinositol [LPI]
Marketable Flowers after 6 days of treatment (% of total) [3]: 44.2 ± 8.3 % of total
Spikes with Wilted Flower Florets after 7 days (% of total) ([4]; 5 mg/L, control 75.5 ± 10.3): 21.6 ± 7.0 % of total
Water Content of Leaf after 18 days (Fresh wt/Dry wt) ([4]; 5 mg/L): 7.57 ± 0.52 Fresh wt/Dry wt
Spikes with Wilted Flower Florets after 7 days (% of total) ([4]; 10 mg/L): 15.0 ± 11.5 % of total
Vase Life of Spikes (Days when > 50% of spikes remained marketable) ([4]; 10 mg/L): 13 days
Spikes with Wilted Flower Florets after 7 days (% of total) ([4]; 25 mg/L): 17.8 ± 7.5 % of total
Leaf water content of spikes [4]: higher than that of LPEegg and water-treated spikes
spikes wilted after 7 days of treatment [4]: 15-22%
At Harvest, Partial Red fruits (weight % of total) [5]: 11.7 weight % of total
At Harvest, Green fruits (weight % of total) [5]: 18.3 weight % of total
3 Weeks After Harvest, Soft Fruits (non marketable) (weight % of total) [5]: 25.6 weight % of total
At Harvest, Red fruits (weight % of total) [5]: 70.1 weight % of total
Ethylene Production after 7 days [6]: 0.71 ± 0.40 nl/g. hr^1
Rotten fruits after 3 weeks (% of total) [6]: 17.5 % of total
ethylene production relative to control [6]: about half of the control
PLD activity, % of the control [1, 13]: 31%
Effect of different lysophospholipids on PLD activity [1]: inhibitory effects somewhat similar to those of LPE
chlorophyll content of senescing leaves [7]: much higher than leaves treated with LPA, LPC or LPEegg

CCCCCCCCCCCCCCCCCC(=O)OCC(O)COP(=O)(O)OCCN (stereo not shown) [LPE18:0]
Ethylene production, Relative % [2]: 71.3%

CCCCCCCCCCCCCCCC(=O)OCC(O)COP(=O)(O)OCCN (stereo not shown) [LPE16:0]
Ethylene production, Relative % [2]: 92.7%

CCCCCCCC/C=C\CCCCCCCC(=O)OCC(O)COP(=O)(O)OCCN (stereo not shown) [LPE (18:1), lysophosphatidylethanolamine (18:1)]
Marketable Flowers after 6 days of treatment (% of total) [3]: 41.7 ± 8.3 % of total
Ratio (LPE/Control), Soluble PLD, Cabbage ([8]; 200 μM): 0.51
Soluble PLD activity, Cabbage ([8]; 200 μM, control 45.2 ± 3.5, mean ±SE): 23.1 ± 1.6 nmol min^−1 mg^−1 protein
Specific activity of soluble cabbage PLD, % of the control ([8]; in the presence of LPE (18:1)): 51%
Spikes with Wilted Flower Florets after 7 days (% of total) ([4]; 5 mg/L, control 75.5 ± 10.3): 34.5 ± 5.5 % of total
Water Content of Leaf after 18 days (Fresh wt/Dry wt) ([4]; 5 mg/L): 7.81 ± 0.22 Fresh wt/Dry wt
Spikes with Wilted Flower Florets after 7 days (% of total) ([4]; 10 mg/L): 30.0 ± 5.5 % of total
Vase Life of Spikes (Days when > 50% of spikes remained marketable) ([4]; 10 mg/L): 12 days
Spikes with Wilted Flower Florets after 7 days (% of total) ([4]; 25 mg/L): 38.7 ± 8.5 % of total
Leaf water content of spikes [4]: higher than that of LPEegg and water-treated spikes
spikes wilted after 7 days of treatment [4]: 30-39%
At Harvest, Partial Red fruits (weight % of total) [5]: 11.7 weight % of total
At Harvest, Green fruits (weight % of total) [5]: 22.9 weight % of total
3 Weeks After Harvest, Soft Fruits (non marketable) (weight % of total) [5]: 33.0 weight % of total
At Harvest, Red fruits (weight % of total) [5]: 65.4 weight % of total
Membrane-associated castor bean PLD activity, % of the control [9]: 31%
Membrane-associated PLD activity, Castor Bean ([9]; 200 μM): 47.0 ± 3.6 nmol min^−1 mg^−1 protein
Ratio (LPE/Control), Membrane-associated PLD, Castor Bean ([9]; 200 μM): 0.31
Ethylene Production after 7 days [6]: 0.70 ± 0.20 nl/g. hr^1
Rotten fruits after 3 weeks (% of total) [6]: 7.7 % of total
ethylene production relative to control [6]: about half of the control
Ratio (LPE/Control), Membrane-associated PLD, Cabbage ([10]; 200 μM): 0.59
Membrane-associated PLD activity, Cabbage ([10]; 200 μM, control 368.8 ± 6.5, mean ±SE): 217.0 ± 13.0 nmol min^−1 mg^−1 protein
Specific activity of membrane-associated cabbage PLD, % of the control ([10]; in the presence of LPE (18:1)): 59%
PLD activity, % of the control ([1]; 10 μM (FIG. 3)): 50%
PLD activity, % of the control ([1]; 40 μM, PC substrate (FIG. 1)): 16%
PLD activity, % of the control [1, 13]: 11%
Vmax ([1]; in the presence of LPE (18:1), control Vmax 20.0): 2.9 μmol min^−1 mg^−1 protein
Km ([1]; read-out: apparent Km for PLD, in the presence of LPE, substrate PC (FIG. 4)): 1700 µM
Type of PLD inhibition ([1]; substrate concentration varied (FIG. 4)): non-competitive inhibition
Soluble castor bean PLD activity, % of the control [11]: 30%
Ratio (LPE/Control), Soluble PLD, Castor Bean ([11]; 200 μM): 0.30
Soluble PLD activity, Castor Bean ([11]; 200 μM): 3.1 ± 0.1 nmol min^−1 mg^−1 protein
Ethylene production, Relative % [2]: 59.6%
decrease in ethylene production ([2]; 2 days after treatment): 40%

CCCCCCCC/C=C\CCCCCCCC(=O)O [18:1 fatty acid]
Effect of components of the LPE molecule on PLD activity [1]: no inhibitory effect

O=P(O)(O)CCCl [Ethephon (E), ethephon]
Chlorophyll Content [12]: 3.65 ± 0.25 mg/g dry wt
Protein Content [12]: 58.8 ± 14.7 mg/g dry wt

NCCO [ethanolamine]
Effect of components of the LPE molecule on PLD activity [1]: no inhibitory effect

phosphatidylethanolamine [PE]
PLD activity, % of the control [1, 13]: 126%

Lysophosphatidylcholine [LPC]
Effect of different lysophospholipids on PLD activity [1]: did not significantly affect
